From patent US20110052494A1, “H-ANTIGEN BINDING POLYPEPTIDES AND METHODS OF USE” (priority 2008, published 2011)

Assays:
[1] = system: LLY (Streptococcus mitis SK597 lectinolysin, SEQ ID NO:1) on human donor 1 platelets; test: Block of the lectin-dependent enhancement of LLY pore formation (calcein release from platelets); type: cell-based; settings: high responder platelets pretreated
Method: Calcein release assay. PRP was diluted 1:100 with HEPES/saline assay buffer (2 mM CaCl2, 1 mM MgCl2, 150 mM NaCl, 10 mM HEPES, pH 7.5) and incubated with 2 μM calcein-acetoxy methyl ester (Molecular Probes, Eugene, Oreg.) for 10 minutes at room temperature as previously described (17). LLY (0.7-2.9 nM) was incubated with the calcein-loaded PRP for 10 minutes at room temperature. Samples were then diluted with HEPES/saline and analyzed on a FACSCalibur flow cytometer (Becton-Dickinson) using settings as described previously (17). Cells losing calcein fluorescence were quantified as a percentage of total platelets.
The EC50 values for LLY- and LLY^CDC-dependent calcein release were calculated using a nonlinear sigmoidal dose-response curve fit of the data (Prism Software).
We hypothesized that enhancement of LLY activity resulted from a glycan-dependent interaction of the lectin domain after monomer bound the cell surface. If correct then preincubating platelets with LLY^Lec should prevent interaction of the lectin domain of LLY with surface glycans and block the enhancement of LLY activity on the highly sensitive donor 1 platelets.

[2] = target: T1, LLY^Lec-Q190C (isolated fucolectin domain of Streptococcus mitis SK597 lectinolysin, SEQ ID NO:3, Q190C = position 154 of the domain) (Streptococcus sp. SK597, UniProt B3UZR3, Q190C); test: Glycan microarray binding, Alexa-488 labeled LLY^Lec; settings: for glycan microarray binding at the lowest LLY^Lec concentration: 5.6 nM LLY^Lec, determinants lacking the difucosylated structures
T1 construct: Alexa-488 maleimide on Cys-190; E. coli
Method: FIGS. 7A & 7B. LLY^Lec preferentially binds Le^y and Le^b glycans. Version 2.1 of the printed glycan microarray (Consortium for Functional Glycomics) was probed with Alexa-488 labeled LLY^Lec-Q190C at 560 nM, 56 nM and 5.6 nM. […] The average RFU (from 4-6 analysis with high and low values eliminated) for each bound glycan was determined as described in the Methods and the % CV (100×Standard Deviation÷Average) provides an indication of the precision of each measurement. […] AVG RFU is average relative fluorescence units; SP, spacer arm or linker between glycan and surface of the array; SP0, —CH2CH2NH2; and SP8, CH2CH2CH2NH2. Circles; galactose, squares; GalNac, triangles, fucose, squares; GlcNAc.
Chemical modification of LLY and its derivatives with sulfhydryl-specific fluorescent probes. Cysteine derivatives of LLY and LLY^Lec (i.e., the 162 amino acid fucolectin domain) were modified with Alexa Fluor 488 C5-maleimide (Invitrogen) via the sulfhydryl group as previously described (12). Modified protein stocks were adjusted to 10% (v/v) sterile glycerol, quick frozen in liquid nitrogen, and stored at −80° C. Proteins were labeled at an efficiency of 75% or greater.
Glycan microarray binding assay and scanning. Glycan microarrays were prepared as described previously (33,37) and obtained from the NIH/NIGMS-funded Consortium for Functional Glycomics (see http://www.functionalglycomics.org/static/index.shtml). Before assay, the slides were rehydrated for 5 minutes in TSM buffer (20 mM Tris-HCL, 150 mM sodium chloride (NaCl), 0.2 mM calcium chloride (CaCl2) and 0.2 mM magnesium chloride (MgCl2). Alexa-488-labeled LLY^Q190C and its derivatives were used in the binding assay (560-640 nM), and the bound proteins were detected directly via the fluorescent tag.
The slides were scanned with a Perkin Elmer ProScanarray MicroArray Scanner (Waltham, Mass.) using an excitation wavelength of 488 nm. ImaGene software (BioDiscovery, Inc., El Segundo, Calif.) was used to quantify fluorescence. The data are reported as average relative fluorescence units (RFU) from 4 of the 6 replicates (after removal of the highest and lowest values) for each glycan represented on the array. Versions 2.1 and 3.0 of the printed array were used in these studies and a complete list of glycans printed on these arrays can be found at the Functional Glycomics Gateway website:
Purified LLY^Lec-Q190C was fluorescently labeled with Alexa-488 and used to probe the glycan microarray. […] The AAA glycan binding site contains three key residues that make polar contacts with the fucose molecule. The Nε of His-52 contacts O-5 of the fucose ring whereas the guanidinium groups of Arg-79 and Arg-86 make contact with 3-OH and 4-OH ring hydroxyls of fucose (10). […]

| Molecule | effect of pretreatment on the high/low responder EC50 difference [1] | glycan microarray binding at the lowest LLY^Lec concentration [2] | glycan microarray ligand preference ([2]; printed glycan microarray, overall conclusion) |
| --- | --- | --- | --- |
| C[C@@H]1OC(O)[C@@H](O)[C@H](O)[C@@H]1O (stereo partly drawn) [fucose, L-fucose] | This difference was abolished |  |  |
| Fucα1-2Galβ [H-antigen] |  | binds weakly or not at all | weaker ligand |
| GaNAclα1-3[Fucα1-2]Galβ1-3/4R [blood group A] |  | binds weakly or not at all |  |
| Galα1-3[Fucα1-2]Galβ1-3/4R [blood group B] |  | binds weakly or not at all |  |
